Laboratory results: patent US12351595B2, “Composition comprising O-cyclic phytosphingosine-1-phosphate for preventing or treating Parkinson's disease” (AXCESO BIOPHARMA CO., LTD., priority 2019, dated 2025)

Assays:
SH-SY5Y cells = assay: MPP+-treated Parkinson's disease cell model, cell survival (MTT assay); format: cell-based, human
Procedure: To prepare a Parkinson's disease cell model by inducing oxidative stress with MPP^+ (1-methyl-4-phenylpyridinium iodide, Sigma), MPP^+ was dissolved in a phosphate buffer solution, diluted to a final concentration of 3 mM, and added to a nerve cell culture medium. To confirm the efficacy of the cP1P drug in the MPP^+ environment, SH-SY5Y cells were pretreated with cP1P drug at concentrations of 10 nM, 100 nM, and 1000 nM, respectively, for 1 hour, and then exposed to oxidative stress by treatment with 3 mM MPP^+ for 24 hours. The efficacy of the cP1P drug on the survival of SH-SY5Y cells after 24 hours of exposure to oxidative stress was determined by MTT assay.

SH-SY5Y nerve cells = assay: Rotenone-treated Parkinson's disease cell model, necrotic cell death (LDH detection kit); format: cell-based, human
Procedure: Rotenone is a substance widely used in cell models to induce Parkinson's disease. It is well known that when a nerve cell is treated with rotenone, mitochondrial function is destroyed, and oxidative stress is induced to cause death of the nerve cell.
The SH-SY5Y nerve cell culture medium was treated with cP1P drug at concentrations of 100 nM and 1000 nM, respectively, and cultured for 24 hours. Then, rotenone (Sigma) was dissolved in DMSO, diluted to a final concentration of 2 μM, and added to the SH-SY5Y nerve cell culture medium. The SH-SY5Y nerve cells were cultured for an additional 24 hours. SH-SY5Y nerve cells were obtained and cultured in the same manner as in Example 1.
Necrotic cell death was measured for the cultured SH-SY5Y nerve cells using a lactate dehydrogenase (LDH) detection kit (BioVision).
For comparison, the necrotic cell death was also measured for the control group that was treated only with DMSO without cP1P drug and rotenone, and the control group that was treated only with diluted rotenone solution without cP1P drug. In addition, the necrotic cell death was measured for the treatment of the nerve cells with the cP1P drug at concentrations of 100 nM and 1000 nM, respectively.

[1] = tested on: SH-SY5Y human nerve cell line; assay: Proliferation of SH-SY5Y human nerve cells (MTT assay); format: cell-based; conditions: 48 hours
Procedure: The SH-SY5Y human nerve cell line purchased from ATCC was used as a nerve cell line to evaluate the effect of the cP1P drug on the proliferation of dopaminergic human nerve cells. Dulbeco's Modified Eagle's Media/high glucose (with 10% FBS, 0.5% P/S) was used as a medium for culturing nerve cells, and the nerve cells were cultured at 37° C. in 5% CO2 incubator.
In order to observe the effect of cP1P drug on the proliferation of the dopaminergic human nerve cells, SH-SY5Y cells were treated with cP1P drug at concentrations of 10 nM, 100 nM and 1000 nM, respectively, and cultured for 48 hours. MTT assay (Molecular Probes) was performed according to the manufacturer's method to measure the cell proliferation rate.

[2] = tested on: Tyrosine hydroxylase (TH); assay: Tyrosine hydroxylase (TH) expression in SH-SY5Y nerve cells (immunohistochemistry and western blot); format: cell-based, human; conditions: 24 hours
Procedure: Tyrosine hydroxylase (TH) is an enzyme that converts amino acid tyrosine into L-DOPA, a precursor of dopamine, and plays an important role in the formation of dopamine in nerve cells.
In order to confirm the efficacy of the cP1P drug on TH expression in SH-SY5Y nerve cells, SH-SY5Y nerve cell culture was treated with the cP1P drug at concentrations of 10 nM and 100 nM, respectively. TH expression was determined by immunohistochemistry and western blot after 24 hours.

Compound: C[n+]1ccc(-c2ccccc2)cc1.[I-] [MPP^+, 1-methyl-4-phenylpyridinium iodide, reference compound]
- nerve cell death (SH-SY5Y cells; MPP+ 3 mM only, 24 hours): the nerve cells were killed

Compound: C=C(C)[C@H]1Cc2c(ccc3c2O[C@@H]2COc4cc(OC)c(OC)cc4[C@@H]2C3=O)O1 [rotenone, reference compound]
- degree of nerve cell death (SH-SY5Y nerve cells; rotenone 2 μM only, 24 hours): exceed 30%

Compound: CCCCCCCCCCCCCC[C@@H](O)[C@H]1OP(=O)(O)OC[C@@H]1N [cP1P, O-cyclic phytosphingosine-1-phosphate]
- effect on the proliferation of SH-SY5Y cells ([1]; 10 nM): effect on the proliferation of SH-SY5Y cells appeared
- effect on the nerve cell proliferation ([1]; 100 nM (of 10, 100, 1000 nM)): highest
- expression of the TH enzyme ([2]; 10 nM): increased
- expression of the TH enzyme ([2]; 100 nM): increased
- nerve cell death (SH-SY5Y cells; cP1P 100 nM pretreatment 1 hour, then 3 mM MPP+ 24 hours): significantly reduced
- nerve cell death (SH-SY5Y cells; cP1P pretreatment (10, 100, 1000 nM) 1 hour, then 3 mM MPP+ 24 hours): significantly reduced
- degree of cell death (SH-SY5Y nerve cells; cP1P 100 nM and 1000 nM alone, without rotenone): reduced the degree of cell death compared to the control group treated only with DMSO
- nerve cell death (SH-SY5Y nerve cells; cP1P 100 nM and 1000 nM for 24 hours, then rotenone 2 μM for 24 hours): inhibited to the level equivalent to that of DMSO treatment without rotenone
